Results on 5 compounds are retold here after publication PMC10940605, “Design, synthesis and in vitro anticancer activity of some new lomefloxacin derivatives” (Scientific Reports, 2024).

What is called inhibition is the change of the read-out against control, counted positive when it falls.

Holding throughout (experiment): NCI-60 SRB screen
Holding throughout (format): cell-based

Assay [1] deals with 786-0. The note with it: Homo sapiens; 786-0, 10^–5 Molar; read-out: Percent growth inhibition. In short, it runs like this:
(§1)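 Single-dose screen at 10^−5 M; cells grown in RPMI 1640 with 2 mM L-glutamine and FBS for 24 h, then exposed to compound for 48 h at 37 °C, 5% CO2. TCA-fixed, SRB-stained, absorbance read at […]; percentage growth inhibition calculated against time-zero and control wells.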

Assay [2] has as its system ACHN. As to conditions: Homo sapiens, 10^–5 Molar, read-out: Percent growth inhibition. The gist of the method: as §1
Assay [3] has as its system BT-549. The note with it: Homo sapiens; BT-549, 10^–5 Molar; read-out: Percent growth inhibition. In short, it runs like this: (§2)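 Growth inhibition derived from SRB-stained protein read at […], normalised to cell density at drug addition and to drug-free controls. Exposure: 48 h at 10^−5 M in RPMI 1640 with L-glutamine and fetal bovine serum.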
The test system of assay [4] is HCC-2998. The note with it: Homo sapiens; HCC-2998, 10^–5 Molar; read-out: Percent growth inhibition. The gist of the method: as §2
The subject of assay [5] is HCT-116. As to conditions: Homo sapiens; HCT-116, 10^–5 Molar; read-out: Percent growth inhibition. In short, it runs like this: as §2
Assay [6] has as its system HOP-92. As to conditions: Homo sapiens; HOP-92, 10^–5 Molar; read-out: Percent growth inhibition. In short, it runs like this:
as §2

Assay [7] has as its system HS 578T. The note with it: Homo sapiens, 10^–5 Molar, read-out: Percent growth inhibition. In short, it runs like this: as §2
For assay [8], the system named is KM12. The note with it: Homo sapiens; KM12, 10^–5 Molar; read-out: Percent growth inhibition. In short, it runs like this:
as §1

For assay [9], the system named is M14. The note with it: Homo sapiens; M14, 10^–5 Molar; read-out: Percent growth inhibition. The gist of the method: as §2
In assay [10] the test system is MALME-3M. The note with it: Homo sapiens, 10^–5 Molar, read-out: Percent growth inhibition. In short, it runs like this:
as §1

Assay [11] concerns MCF7. As to conditions: Homo sapiens; MCF7, 10^–5 Molar; read-out: Percent growth inhibition. In short, it runs like this: as §2
Assay [12] concerns MDA-MB-435. As to conditions: Homo sapiens; MDA-MB-435, 10^–5 Molar; read-out: Percent growth inhibition. The gist of the method:
as §1

Assay [13] deals with NCI-H23. The note with it: Homo sapiens; NCI-H23, 10^–5 Molar; read-out: Percent growth inhibition. The gist of the method: as §2
Assay [14] deals with NCI-H322M. The note with it: Homo sapiens, 10^–5 Molar, read-out: Percent growth inhibition. The gist of the method: as §2
Assay [15] deals with NCI-H460. As to conditions: Homo sapiens; NCI-H460, 10^–5 Molar; read-out: Percent growth inhibition. The gist of the method: as §2
For assay [16], the system named is NCI-H522. The note with it: Homo sapiens; NCI-H522, 10^–5 Molar; read-out: Percent growth inhibition. The gist of the method: as §2
For assay [17], the system named is OVCAR-5. As to conditions: Homo sapiens; OVCAR-5, 10^–5 Molar; read-out: Percent growth inhibition. In short, it runs like this:
as §1

Assay [18] concerns SF-295. The note with it: Homo sapiens; SF-295, 10^–5 Molar; read-out: Percent growth inhibition. In short, it runs like this:
as §1

Assay [19] has as its system SF-539. The note with it: Homo sapiens; SF-539, 10^–5 Molar; read-out: Percent growth inhibition. In short, it runs like this: as §2
The test system of assay [20] is SW-620. The note with it: Homo sapiens; SW-620, 10^–5 Molar; read-out: Percent growth inhibition. The gist of the method:
as §2

Assay [21] deals with T-47D. The note with it: Homo sapiens, T47D, 10^–5 Molar, read-out: Percent growth inhibition. In short, it runs like this: as §1
Assay [22] has as its system U251. The note with it: Homo sapiens, U-251; U251, 10^–5 Molar; read-out: Percent growth inhibition. The gist of the method: as §2
Assay [23] concerns UACC-62. As to conditions: Homo sapiens; UACC-62, 10^–5 Molar; read-out: Percent growth inhibition. The gist of the method: as §1
Assay [24] deals with UO-31. As to conditions: Homo sapiens; UO-31, 10^–5 Molar; read-out: Percent growth inhibition. The gist of the method: as §2

As for `CCn1cc(C(=O)NN=Cc2cccs2)c(=O)c2cc(F)c(N3CCNC(C)C3)c(F)c21` (centres unmarked) [Compound 3e, 1-Ethyl-6,8-difluoro-7-(3-methylpiperazin-1-yl)-4-oxo-N'-(thiophen-2-ylmethylene)-1,4-dihydroquinoline-3-carbohydrazide], the inhibition at 10 µM was 32.2% in assay [1]; 12.8% in assay [2]; 38.4% in assay [3]; 71.4% in assay [4]; 5.52% in assay [5]; 46.2% in assay [6]. Moreover, the inhibition at 10 µM in [7] came out at 13.9%; in assay [8], 16.5%; in assay [9] it was 50.6%; in assay [10], 137%; in [11], 177%; in assay [12], 7.77%. Further, the inhibition at 10 µM in [13] amounted to 10.2%; in assay [14], 15.9%; in [15], 76.4%; in [16], 28.9%; in assay [17], 32.8%; in [18], 14.7%. Further, the inhibition at 10 µM in [19] stood at 15.8%; in assay [20], 117%; in [21], 22.2%; in assay [22] it was 46.7%; in assay [23], 3.47%; in assay [24] it was 33.2%.

As for `CCn1cc(C(=O)NN=Cc2cccnc2)c(=O)c2cc(F)c(N3CCNC(C)C3)c(F)c21` (centres unmarked) [Compound 3d, 1-Ethyl-6,8-difluoro-7-(3-methylpiperazin-1-yl)-4-oxo-N'-(pyridin-3-ylmethylene)-1,4-dihydroquinoline-3-carbohydrazide], the inhibition at 10 µM in assay [1] was 54.1%; in assay [2] it was 13.6%; in assay [3], 23.1%; in assay [4] it was 50.4%; in assay [5], 66.5%; in assay [6], 74.2%. The inhibition at 10 µM in assay [7] came out at 57.8%; in [8], 20.7%; in assay [9] it was 10.3%; in [10], 40%; in [11], 80.9%; in [12], 49%. In addition, the inhibition at 10 µM was found to be 50.9% in assay [13]; 41.9% in assay [14]; 63% in assay [15]; 61.5% in assay [16]; 31.3% in [17]; 15.1% in assay [18]. Besides, the inhibition at 10 µM was determined as 68.2% in [19]; 73.9% in assay [20]; 52.6% in [21]; 74.6% in assay [22]; 48.6% in assay [23]; 12.5% in assay [24].

As to `CCn1cc(C(=O)NN=Cc2ccccc2)c(=O)c2cc(F)c(N3CCNC(C)C3)c(F)c21` (centres unmarked) [Compound 3a, N'-Benzylidene-1-ethyl-6,8-difluoro-7-(3-methylpiperazin-1-yl)-4-oxo-1,4-dihydroquinoline-3-carbohydrazide], the inhibition at 10 µM in assay [1] amounted to 167%; in assay [2], 43.2%; in [3] it was 22.2%; in assay [4], 183%; in [5], 42.5%; in [6], 44.2%. Also, the inhibition at 10 µM in assay [7] came to 30.3%; in assay [8] it was 189%; in [9], 150%; in assay [10], 178%; in assay [11] it was 184%; in [12] it was 188%. For the same compound, the inhibition at 10 µM in [13] amounted to 31.5%; in assay [14], 47.5%; in [15] it was 173%; in assay [16], 175%; in assay [17] it was 33%; in [18], 91.1%. Further, the inhibition at 10 µM in assay [19] turned out to be 187%; in [20], 181%; in assay [21], 36.4%; in assay [22] it was 192%; in [23] it was 128%; in [24] it was 52.5%.

For `CCn1cc(C(=O)NN=Cc2ccc(Br)cc2)c(=O)c2cc(F)c(N3CCNC(C)C3)c(F)c21` (centres unmarked) [Compound 3c, N'-(4-Bromobenzylidene)-1-ethyl-6,8-difluoro-7-(3-methylpiperazin-1-yl)-4-oxo-1,4-dihydroquinoline-3-carbohydrazide], the inhibition at 10 µM in assay [1] is 36.1%; in assay [2], 11.2%; in assay [3], 8.32%; in assay [4], 74.1%; in [5], 32.3%; in [6], 38.8%. The inhibition at 10 µM in assay [7] turned out to be 26.9%; in assay [8], 52.1%; in assay [9], 57.3%; in [10], 41.3%; in assay [11], 177%; in assay [12], 83.3%. For the same compound, the inhibition at 10 µM was found to be 9.03% in assay [13]; 14.2% in assay [14]; 151% in assay [15]; 21.5% in assay [16]; 5.97% in assay [17]; 25.5% in [18]. Also, the inhibition at 10 µM is 28.6% in [19]; 174% in assay [20]; 36% in assay [21]; 98.6% in assay [22]; 31.6% in assay [24].

As for `CCn1cc(C(=O)NN=Cc2cccc(F)c2)c(=O)c2cc(F)c(N3CCNC(C)C3)c(F)c21` (centres unmarked) [Compound 3b, 1-Ethyl-6,8-difluoro-N′-(3-fluorobenzylidene)-7-(3-methylpiperazin-1-yl)-4-oxo-1,4-dihydroquinoline-3-carbohydrazide], the inhibition at 10 µM worked out at 140% in assay [1]; 25.6% in assay [2]; 17.1% in [3]; 181% in assay [4]; 28.8% in assay [5]; 48.8% in assay [6]. Besides, the inhibition at 10 µM in assay [7] was found to be 18.7%; in assay [8], 127%; in assay [9], 107%; in assay [10] it was 167%; in assay [11] it was 184%; in assay [12], 175%. In addition, the inhibition at 10 µM in assay [13] worked out at 23.8%; in assay [14], 16.6%; in assay [15], 179%; in assay [16], 130%; in [17], 9.76%; in [18], 24.3%. Moreover, the inhibition at 10 µM was 105% in [19]; 185% in assay [20]; 27.7% in [21]; 174% in assay [22]; 35.2% in [23]; 79.4% in assay [24].
